Five molecules from paper PMC10056567, “Structural Insights into the Ligand–LsrK Kinase Binding Mode: A Step Forward in the Discovery of Novel Antimicrobial Agents” (Molecules, 2023) can be followed below.

Usually Kd stands for the equilibrium constant for the complex coming apart. Lower therefore signals a tighter complex.

For assay [1], the target named is T1, LsrK (ecLsrK) (Escherichia coli, UniProt P77432). The assay can be described thus: tryptophan fluorescence quenching, modified Stern-Volmer. The assay is classed as binding. Set-up: 530 residues. Particulars: 0.1 uM LsrK, PBS pH 7.4, 25 °C.
T1 sequence (P77432 whole entry): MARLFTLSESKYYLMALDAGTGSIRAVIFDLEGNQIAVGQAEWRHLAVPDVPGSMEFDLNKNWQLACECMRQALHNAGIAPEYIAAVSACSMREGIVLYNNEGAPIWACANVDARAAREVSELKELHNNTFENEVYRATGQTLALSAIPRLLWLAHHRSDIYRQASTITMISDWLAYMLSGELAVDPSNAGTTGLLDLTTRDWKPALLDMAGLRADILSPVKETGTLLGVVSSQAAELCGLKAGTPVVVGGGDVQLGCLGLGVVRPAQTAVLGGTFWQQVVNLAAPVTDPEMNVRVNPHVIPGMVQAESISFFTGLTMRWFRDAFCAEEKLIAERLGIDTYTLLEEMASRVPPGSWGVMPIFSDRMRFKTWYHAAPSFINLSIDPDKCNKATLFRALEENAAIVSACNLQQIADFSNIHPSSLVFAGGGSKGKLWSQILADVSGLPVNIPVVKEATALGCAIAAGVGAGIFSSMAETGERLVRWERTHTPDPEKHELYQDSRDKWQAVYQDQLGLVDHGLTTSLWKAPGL
For assay [2], the target named is T1, LsrK (ecLsrK). The assay can be described thus: biochemical.

Consider `COc1cc(C)cc2cc3c(c(O)c12)C(=O)CC[C@H]3O` [(R)-ASME], for which binding at LsrK (ecLsrK) [1] was characterised by a dissociation constant (Kd) of 190 nM. Take `Nc1ncnc2c1ncn2[C@@H]1O[C@H](COP(=O)(O)OP(=O)(O)OP(=O)(O)O)[C@@H](O)[C@H]1O` [ATP]: binding at LsrK (ecLsrK) [2] was put at a Kd of 5070 ± 230 nM. As for `COC(=O)[C@@H]1OC(=O)C[C@@]1(O)C(=O)OC` [Hib-ester, dimethyl (2R,3S)-3-hydroxy-5-oxotetrahydrofuran-2,3-dicarboxylate], the equilibrium dissociation constant (Kd) at LsrK (ecLsrK) [1] was 78 nM.

As to `Cc1cc(O)c(C=O)c2c1C(=O)Oc1c(COC(=O)/C=C/C(=O)O)c(O)c(C(=O)O)c(C)c1O2` [FP, fumarprotocetraric acid], the dissociation constant Kd on LsrK (ecLsrK) [1] was 217 ± 8 nM. Still for that read-out and setting: then `O=CC1=C(O)C=CCO1` [Hib-carbaldehyde, 5-hydroxy-2H-pyran-6-carbaldehyde], with 140 nM.
